Drawing on BindingDB's records for doi:10.1021/jm900472s (Burnham Institute For Medical Research, 2009), this text covers IC50 for one compound.

The target of the assay is Apoptosis regulator Bcl-2 (Homo sapiens, UniProt P10415). In words: Fluorescence Polarization Assay. The settings on record: pH 7.4; 23 °C. As for the experimental part: FPAs were performed using various concentrations of GST-Bcl-2 family proteins, incubated with FITC-conjugated peptide substrates in the presence of inhibitor compound. […] IC50 was determined by fitting the experimental data to a sigmoidal dose-response nonlinear regression model (SigmaPlot 10.0.1, Systat Software, Inc., San Jose, CA). Data reported are the mean of three independent experiments.
Apoptosis regulator Bcl-2, sequence (P10415 whole entry): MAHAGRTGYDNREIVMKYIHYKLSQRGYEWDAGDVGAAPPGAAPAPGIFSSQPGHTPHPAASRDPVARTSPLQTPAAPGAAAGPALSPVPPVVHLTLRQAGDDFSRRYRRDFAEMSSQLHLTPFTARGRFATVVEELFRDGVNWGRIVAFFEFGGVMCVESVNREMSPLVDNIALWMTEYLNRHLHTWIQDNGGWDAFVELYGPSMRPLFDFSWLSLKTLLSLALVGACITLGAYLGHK

Turning to `Cc1cc2c(C(C)C)c(O)c(O)cc2c(O)c1-c1c(C)cc2c(C(C)C)c(O)c(O)cc2c1O` [Apogossypol], half-maximal inhibition (IC50) was put at 4.3 µM. In other words, the single-digit micromolar range.

As usually defined, the IC50 is the midpoint of a concentration-inhibition curve.
